Measurements taken from patent publication US11214562B2, “Cyclohexyl benzamide compounds” (Eli Lilly and Company, priority 2016, dated 2022).
pEC50: −log10 of the molar value.

Legend:
GPR142 = target: T1, GPR142 (Mus musculus, UniProt Q7TQN9); experiment: Intraperitoneal glucose tolerance test (IPGTT); type: in vivo; conditions: male C57BL/6 mice, oral dose 90 min prior to 2 g/kg i.p. glucose challenge
T1 construct: from tissue; host or cells: whole animal, male C57BL/6 mice
T1 sequence (Q7TQN9 1-365): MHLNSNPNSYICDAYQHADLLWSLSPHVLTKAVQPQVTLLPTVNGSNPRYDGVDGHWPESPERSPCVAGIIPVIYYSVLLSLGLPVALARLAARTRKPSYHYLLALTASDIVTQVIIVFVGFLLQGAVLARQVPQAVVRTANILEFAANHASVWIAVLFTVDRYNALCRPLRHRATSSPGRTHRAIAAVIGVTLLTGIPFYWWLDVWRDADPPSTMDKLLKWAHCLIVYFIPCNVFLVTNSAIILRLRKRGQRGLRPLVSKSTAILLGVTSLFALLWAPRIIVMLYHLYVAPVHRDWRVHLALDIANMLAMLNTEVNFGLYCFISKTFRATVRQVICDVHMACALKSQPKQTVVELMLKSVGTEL
Description: Intraperitoneal Glucose Tolerance Tests (IPGTT)
The IPGTT assay is used to examine the ability of a compound to activate GPR142 in vivo resulting in anti-diabetic efficacy, i.e. reduction in plasma glucose levels. Male C57BL/6 mice (8-10 weeks of age) are fed normal rodent chow diet and water ad libitum. On the night before the study, fast the animals overnight in clean cages. On the morning of the study, orally dose the animals with either vehicle or a test compound at the indicated doses 90 min prior to the glucose challenge (2 g/kg) by intraperitoneal injection. Determine the blood glucose levels from tail bleeds taken immediately prior to compound dosing (−90 min) and 0, 15, 30, and 60 min after glucose challenge using handheld glucometers. Use the blood glucose profile from t=0 to t=60 min to calculate an area under the curve (AUC) for each treatment. Calculate the percent glucose lowering. The AUC is calculated for each treatment group with respect to the AUC of vehicle group. A compound with a reduction in glucose AUC (P<0.05) is considered positive in the assay.

human GPR142 = target: T2, human GPR142 (Homo sapiens, UniProt Q7Z601); experiment: GPR142 agonist effect as measured by IP-1 assay (IP-One HTRF); type: cell-based
T2 construct: expressed in transfected cells; host or cells: HEK293 (kept under G418 selection)
T2 sequence (Q7Z601 1-462): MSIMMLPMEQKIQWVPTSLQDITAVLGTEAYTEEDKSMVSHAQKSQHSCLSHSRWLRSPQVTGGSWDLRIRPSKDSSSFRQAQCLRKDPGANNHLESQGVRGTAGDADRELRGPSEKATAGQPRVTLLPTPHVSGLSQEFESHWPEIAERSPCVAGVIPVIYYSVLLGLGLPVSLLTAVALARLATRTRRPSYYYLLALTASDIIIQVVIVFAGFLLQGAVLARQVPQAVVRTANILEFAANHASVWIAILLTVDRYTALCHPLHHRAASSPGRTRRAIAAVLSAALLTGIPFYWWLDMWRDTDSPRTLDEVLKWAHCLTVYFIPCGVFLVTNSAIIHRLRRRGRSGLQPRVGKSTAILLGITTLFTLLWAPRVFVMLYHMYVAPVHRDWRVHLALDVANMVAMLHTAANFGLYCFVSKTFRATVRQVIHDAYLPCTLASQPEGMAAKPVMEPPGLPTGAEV
Description: Biological Assays GPR142 Agonist Effect as Measured by IP-1 Assay
HEK293 cells expressing human GPR142 are maintained in DMEM supplemented with 10% FBS and 800 μg/ml G418 (Geneticin®) at 37° C. and 5% CO2. Plate the cells in 384 well plates at 5000 cells per well and allow 18 hrs for attachment. Add the test compound at varying concentrations ranging from 30 μM to 1 nM. Incubate the cells for 1 hr. IP-1 measurements are performed using an IP-One HTRF® assay kit (Cisbio) according to manufacturer's protocol using an assay buffer containing 1×HBSS (+Ca, +Mg), 0.1% BSA, 50 mM LiCl and 20 mM HEPES, pH 7.2. Stop the reaction by the addition of IP1-d2 (IP-1 coupled to an organic HTRF acceptor) followed by cryptate solution (http://www.htrf.com/usa/htrf-chemistry). Incubate the plates at 25° C. for 1 hr. Read the fluorescence in an Envision instrument at 665 nm and 620 nm wavelength. Calculate the ratio of 665 nm/620 nm fluorescence and convert to IP-1 levels using an IP-1 standard curve. The data is fit to a 4 parameter-fit logistics to determine EC50 values.

- pEC50 (human GPR142; HEK293 cells expressing human GPR142, 1 hr incubation, IP-1 HTRF, read-out: hGPR142 IP1 EC50): 7.84
- hGPR142 IP1 relative efficacy (human GPR142; HEK293 cells expressing human GPR142, IP-1 HTRF): 110%
Compound: Cc1ncn(C)c1-c1nnc([C@H]2CCC[C@@H](N(C)C(=O)c3cccc(Cl)c3)C2)[nH]1 [Example 1]
- IPGTT outcome (reduction in glucose AUC, P<0.05, is positive) (GPR142): positive
- ED50 (glucose AUC lowering in IPGTT) (GPR142; AUC t=0 to 60 min): 0.25 mpk
